According to US8496929B2, “Inotropic effects of antibodies on cardiac contraction” (priority 2002, dated 2013):
“Also recorded” adds a separate entry of the source.

Experiments:
[1] = target: T1, digitalis-sensitive (Na++K+)-ATPase purified from dog kidney (Canis lupus familiaris, UniProt P50997); experiment: (Na++K+)-ATPase activity, digitalis-sensitive enzyme; assay type: biochemical; settings: dog enzyme 16 nM; 24-400 nM
T1 construct: Highly purified dog kidney (Na^++K^+)-ATPase was a gift from Dr. Jack Kyte; tissue gift from Dr. Jack Kyte; host or cells: dog kidney
Description: The enzymatic activity was determined as described previously (Kyte J., et al., (1987) Biochemistry, 26:8350-8360) with modifications. Briefly, purified rat or dog (Na^++K^+)-ATPase was incubated with or without Jianye or ouabain in the presence of 100 mM Na^+ for 30 min at room temperature. The reaction was initiated by adding 3 mM MgATP and 20 mM K^+ in a final volume of 0.25 ml at 37° C. for 30 min and terminated by adding 0.75 ml quench solution and 0.025 ml developer. The color was allowed to develop for 30 min at room temperature and the concentration of phosphate was then determined at 700 nm using a spectrophotometer.
To investigate whether the binding of Jianye affects (Na^++K^+)-ATPase activity, we measured (Na^++K^+)-ATPase (100 nM) activity in the presence of 100 mM Na^+, 20 mM K^+, 3 mM MgATP, and various concentrations of Jianye or ouabain. […] To exclude the possibility that the inability of Jianye to inhibit enzymatic activity may be due to the digitalis-resistant nature of rat (Na^++K^+)-ATPase (FIG. 3), we tested the effect of Jianye on the digitalis-sensitive (Na^++K^+)-ATPase (16 nM) purified from dog kidney.

[2] = target: T2, digitalis-resistant rat (Na++K+)-ATPase (Rattus norvegicus, UniProt P06685); experiment: (Na++K+)-ATPase activity, digitalis-resistant enzyme; assay type: biochemical; settings: enzyme 100 nM; 24-400 nM test agent; 100 mM Na+, 20 mM K+, 3 mM MgATP
T2 construct: the SL vesicles (4.4 mg/ml) were titrated with 0.58 mg/ml of SDS in the presence of 2 mM ATP; from tissue; host or cells: rat heart muscle; enzyme purified from SL vesicles by SDS titration and sucrose step gradient
Description: (§1) Rat cardiac sarcolemmal (SL) vesicles were isolated from rat heart muscle by sucrose flotation method. The vesicles were tested with saponin and were predominately right-side-out in orientation. (Na^++K^+)-ATPase was purified as described previously (Kyte, J. (1971) Biochemistry, 246:4157-4165). Briefly, the SL vesicles (4.4 mg/ml) were titrated with 0.58 mg/ml of SDS in the presence of 2 mM ATP at 20° C. for 30 min. The SDS titrated fractions were then loaded on the top of a sucrose (W/W) step gradient constructed with 10 ml of 37.3% (bottom step), 20 ml of 28.8%, and 10 ml of 15% in a Ti 60 tube, and centrifuged at 40,000 rpm for 90 min. The fractions that contain (Na^++K^+)-ATPase (between 37.3 and 28.8% on the sucrose gradient) were carefully collected and sedimented at 40,000 rpm for 60 minutes. […]
The enzymatic activity was determined as described previously (Kyte J., et al., (1987) Biochemistry, 26:8350-8360) with modifications. […] The color was allowed to develop for 30 min at room temperature and the concentration of phosphate was then determined at 700 nm using a spectrophotometer.
To investigate whether the binding of Jianye affects (Na^++K^+)-ATPase activity, we measured (Na^++K^+)-ATPase (100 nM) activity in the presence of 100 mM Na^+, 20 mM K^+, 3 mM MgATP, and various concentrations of Jianye or ouabain. […]

rat ventricular myocytes = experiment: Cell contraction and confocal Ca2+ transients in single ventricular myocytes; assay type: cell-based; settings: PB (PB95, 20 μM) mixed with Jianye prior to administration
Description: Ventricular cardiac myocytes were isolated from adult Sprague-Dawley rats (2-3 months old; weight 225-300 g) using standard enzymatic techniques. Briefly, following anesthesia (sodium pentobarbital, 100 mg/kg), the heart was quickly removed from the chest and aortic perfused at constant pressure (100 cmH2O) at 37° C. for 3 minutes with a Ca^2+-free bicarbonate-based buffer containing 120 mM NaCl, 5.4 mM MgSO4, 1.2 mM NaH2PO4, 5.6 mM glucose, 20mM NaHCO3, and 5 mM taurine, in the presence of O2 (95%)-CO2 (5%). The enzymatic digestion was initiated by adding collagenase (Worthington Type II, 1 mg/ml) to the perfusion solution. Calcium (50 μM) was added to the enzyme solution when the heart became swollen. […]
Myocytes were placed on an inverted microscope (Zeiss model IM-35), superfused with HEPES-buffered solution at a flow rate of 1.8 ml/min, and electrically stimulated at 0.5 Hz at 23° C. Cell length was monitored from the bright field image (650 nm to 750 nm red light illumination) by an optical edge-tracking method using a photodiode array (model 1024 SAQ, Reticon) with a 3 ms time resolution. The contraction amplitude was measured as the percentage of shortening of cell length. […]
We next determined whether the binding of Jianye to the (Na^++K^+)-ATPase affects cardiac contractility. […]

(Na++K+)-ATPase = experiment: [3H]ouabain binding to cardiac sarcolemmal vesicles; parameters: species or system rat; settings: PB added to Jianye prior to [3H]ouabain
Description: as §1, with “minutes. The purified enzyme was resuspended in a sucrose (250 mM)/histidinium chloride (30 mM) buffer, pH 7.2, quick-frozen in liquid nitrogen and stored at −70° C.” for “minutes.”
Cardiac SL vesicles (3 mg/ml) were incubated with or without various concentrations of Jianye antibody for 30 minutes at room temperature in a medium containing 1 mM MgATP, 100 mM NaCl, and 10 mM Tris/HCl buffer (ph 7.4). […] An aliquot (20 or 50 Ml) was taken from each sample and radioactivity determined using a β-scintillation counter. The percent of [^3H]ouabain binding to the enzyme was then calculated. […]

## C[C@@H]1O[C@@H](O[C@H]2C[C@@H](O)[C@]3(CO)[C@H]4[C@H](O)C[C@]5(C)[C@@H](C6=CC(=O)OC6)CC[C@]5(O)[C@@H]4CC[C@]3(O)C2)[C@H](O)[C@H](O)[C@H]1O [ouabain]
[1]
  effect on dog (Na++K+)-ATPase enzymatic activity: reduced the enzymatic activity
  inhibition of ATP hydrolysis: up to 47%
[2]
  inhibition of rat (Na++K+)-ATPase activity: did not inactivate

## KRQPRNPKTDKLVNE [PB]
Rat ventricular myocytes
  blocking of Jianye-induced increases in Ca2+ transients and contraction: largely abolished; also recorded: completely abolished
Rat ventricular myocytes; listed as PB95
  blocking of Jianye-induced increases in Ca2+ transients and contraction: largely impeded
(Na++K+)-ATPase
  [3H]ouabain labeling when Jianye is saturated by peptide blocker (effect on Jianye antagonism): not affected; also recorded: eliminated this antagonist effect
